For data set [1], the system named is M. tuberculosis H37Rv. Briefly: microbe, parasite or virus in culture. In kind it is cell-based, Mycobacterium tuberculosis.
The conditions of data set [2]: mouse, microsomes.
The nature of data set [3]: in vitro. Conditions: mouse, microsomes.
A short description of data set [4]: physchem. The conditions noted are these: pH 7.4, aqueous buffer, kinetic from dmso stock.
The nature of data set [5]: in vitro. The conditions noted are these: African green monkey.
[6] abbreviates: Mycobacterium tuberculosis, H37RV.
[7] abbreviates: MLM stability t1/2 without NADPH.

≈ marks a conversion by molar mass, not a printed value. Where two headings read alike, the source gives them in different places. Some results are limits rather than exact numbers.

As a reminder, the half-life is how long it takes for the measured level to halve. One may read the solubility (kinetic) as the concentration staying in solution when a stock, usually in DMSO, is diluted into the medium.

Take `CCC(=O)Nc1ccc2cnn(C)c2c1` [5c-1, N-(1-methyl-1H-indazol-6-yl)propionamide]: the MIC in data set [1] (setting [6]) is > 100 µM. Further, the MLM stability clint in data set [2] is recorded as 536 μl/mi/mg protein. Besides, in data set [3] (MLM stability t1/2), the half-life worked out at 1.29 min. The compound further yielded a solubility (kinetic) in data set [4] of 472 µM (≈ 95.9 µg/mL).
As to `CCCCCCS(=O)(=O)Nc1ccc2cnn(C)c2c1` [5a-13, N-(1-Methyl-1H-indazol-6-yl)hexane-1-sulfonamide], the MIC in data set [1] (setting [6]) is > 100 µM. In addition, the CC50 in data set [5] is > 170 µM.
In turn, `CC[C@@H](CO)NCCN[C@@H](CC)CO` [EMB, ethambutol] returned an MIC in data set [1] (setting [6]) of 0.78 µM (≈ 0.159 µg/mL).
Regarding `CCCCS(=O)(=O)Nc1ccc2cnn(CCC)c2c1` [5a-4, N-(1-Propyl-1H-indazol-6-yl)butane-1-sulfonamide], in data set [1] (setting [6]), the MIC was > 100 µM. In addition, the MLM stability clint in data set [2] is on record as 921 μl/mi/mg protein. In addition, the half-life in data set [3] (MLM stability t1/2) was 0.753 min; in data set [3] (setting [7]), > 3060 min. The compound also gave a kinetic solubility in data set [4] of 130 µM (≈ 38.4 µg/mL).
`CCCCNC(=S)Nc1ccc2cnn(C)c2c1` [5b-1, 1-Butyl-3-(1-methyl-1H-indazol-6-yl)thiourea]: the MIC in data set [1] (setting [6]) stood at 3.1 µM (≈ 0.813 µg/mL). The MLM stability clint in data set [2] is listed as 595 μl/mi/mg protein. The CC50 in data set [5] is 25 µM. Further, the half-life in data set [3] (MLM stability t1/2) was 1.17 min; in data set [3] (setting [7]), > 3060 min. In data set [4], this compound registered a solubility (kinetic) of 131 µM (≈ 34.4 µg/mL).
For the compound `COc1c(N2C[C@@H]3CCCN[C@@H]3C2)c(F)cc2c(=O)c(C(=O)O)cn(C3CC3)c12` [Moxi, moxifloxacin], the MIC in data set [1] (setting [6]) came out at 0.03 µM (≈ 0.012 µg/mL).
In the case of `CCCCCS(=O)(=O)Nc1ccc2cnn(C)c2c1` [5a-12, N-(1-Methyl-1H-indazol-6-yl)pentane-1-sulfonamide], the “improvement in MIC/whole-cell activity over DG167” value in data set [1] is given as 2 fold. In data set [1] (setting [6]), this compound returned an MIC of 0.2 µM (≈ 0.0563 µg/mL). Besides, the CC50 in data set [5] is > 100 µM.
Regarding `[2H]C([2H])([2H])n1ncc2ccc(NS(=O)(=O)CCCCOC)cc21` [5a-32, 4-Methoxy-N-(1-(methyl-d3)-1H-indazol-6-yl)butane-1-sulfonamide], the MIC in data set [1] (setting [6]) was > 100 µM. Further, in data set [5], the CC50 is > 100 µM.
On to `CCc1cc(C(N)=S)ccn1` [ETH, ethionamide], for which, in data set [1] (setting [6]), the MIC stood at 25 µM (≈ 4.16 µg/mL).
Still for that read-out and setting: in the case of `CCCCNC(=O)Nc1ccc2cnn(C)c2c1` [5b-2, 1-Butyl-3-(1-methyl-1H-indazol-6-yl)urea] it was > 100 µM.
Turning to `CCCOC(=O)Nc1ccc2cnn(C)c2c1` [5d-2, n-propyl (1-methyl-1H-indazol-6-yl)carbamate], the MIC in data set [1] (setting [6]) is > 100 µM. Further, the CC50 in data set [5] came out at 6.7 µM.
Regarding `CCOC(=O)Nc1ccc2cnn(C)c2c1` [5d-1, Ethyl (1-methyl-1H-indazol-6-yl)carbamate], the MIC in data set [1] (setting [6]) is > 100 µM. The compound also came in with an MLM stability clint in data set [2] of 597 μl/mi/mg protein. Besides, the CC50 in data set [5] was determined as 110 µM. Further, the half-life in data set [3] (MLM stability t1/2) was 1.16 min. The kinetic solubility in data set [4] is > 500 µM.
Consider `Cc1ccc(S(=O)(=O)Nc2ccc3cnn(C)c3c2)cc1` [5a-20, 4-Methyl-N-(1-methyl-1H-indazol-6-yl)benzenesulfonamide], for which, in data set [1] (setting [6]), the MIC amounted to 50 µM (≈ 15.1 µg/mL).
`COCCCCS(=O)(=O)Nc1ccc2cnn(C)c2c1` [5a-15, 4-Methoxy-N-(1-methyl-1H-indazol-6-yl)butane-1-sulfonamide]: the MIC in data set [1] was >100 µM; in data set [1] (setting [6]), > 100 µM. For the same compound, the CC50 in data set [5] was > 100 µM.
`Cn1ncc2ccc(NS(=O)(=O)CCCCC#N)cc21` [5a-14, 4-Cyano-N-(1-methyl-1H-indazol-6-yl)butane-1-sulfonamide] yielded an MIC in data set [1] (setting [6]) of 3.1 µM (≈ 0.906 µg/mL). In data set [5], the CC50 was > 100 µM.
`CC(C)=CCC/C(C)=C/CNCCNC1C2CC3CC(C2)CC1C3` (stereo not shown) [SQ109] yielded an MIC in data set [1] (setting [6]) of 0.8 µM (≈ 0.264 µg/mL).
On the same count and under the same terms, in the case of `Cn1ncc2ccc(NS(=O)(=O)C3CCC3)cc21` [5a-24, N-(1-Methyl-1H-indazol-6-yl)cyclobutanesulfonamide] it was > 100 µM.
Still for that read-out and setting: in the case of `COCCC(C)CCS(=O)(=O)Nc1ccc2cnn(C)c2c1` (stereo not shown) [5a-16, 5-Methoxy-3-methyl-N-(1-methyl-1H-indazol-6-yl)pentane-1-sulfonamide] it was > 100 µM.
The same measure, in the same setting: in the case of `Cn1ncc2ccc(NS(=O)(=O)C3CCC(C(F)(F)F)CC3)cc21` (stereo not shown) [5a-27, N-(1-Methyl-1H-indazol-6-yl)-4-(trifluoromethyl)cyclohexane-1-sulfonamide] it was > 100 µM.
As to `Cn1ncc2ccc(NS(=O)(=O)C3CCCCC3)cc21` [5a-26, N-(1-Methyl-1H-indazol-6-yl)cyclohexanesulfonamide], the MIC in data set [1] (setting [6]) came out at 12.5 µM (≈ 3.67 µg/mL).
As for `CCCCS(=O)(=O)Nc1ccc2cnn(Cc3ccccc3)c2c1` [5a-7, N-(1-Benzyl-1H-indazol-6-yl)butane-1-sulfonamide], the MIC in data set [1] (setting [6]) was > 100 µM. In data set [2], the MLM stability clint is 241 μl/mi/mg protein. Further, the half-life in data set [3] (MLM stability t1/2) is 2.88 min; in data set [3] (setting [7]), > 3060 min. Besides, the solubility (kinetic) in data set [4] was determined as 33.8 µM (≈ 11.6 µg/mL).
For `CC(C)S(=O)(=O)Nc1ccc2cnn(C)c2c1` [5a-11, N-(1-Methyl-1H-indazol-6-yl)propane-2-sulfonamide], in data set [1] (setting [6]), the MIC is > 100 µM.
On the same count and under the same terms, in the case of `COc1nc2ccc(Br)cc2cc1[C@@H](c1ccccc1)[C@@](O)(CCN(C)C)c1cccc2ccccc12` [BDQ, bedaquiline] it was 1 µM (≈ 0.556 µg/mL); in that of `Cn1ncc2ccc(NS(=O)(=O)C3CCCC3)cc21` [5a-25, N-(1-Methyl-1H-indazol-6-yl)cyclopentanesulfonamide], > 100 µM; in that of `Cn1ncc2ccc(NS(=O)(=O)N3CCCCC3)cc21` [5a-28, N-(1-Methyl-1H-indazol-6-yl)piperidine-1-sulfonamide], > 100 µM.
Same read-out and setting: in the case of `Cn1ncc2ccc(NS(=O)(=O)CC3CCCCC3)cc21` [5a-29, 1-Cyclohexyl-N-(1-methyl-1H-indazol-6-yl)methanesulfonamide] it was > 100 µM.
Take `CCCC(C)S(=O)(=O)Nc1ccc2cnn(C)c2c1` (stereo not shown) [5a-18, N-(1-Methyl-1H-indazol-6-yl)pentane-2-sulfonamide]: the MIC in data set [1] (setting [6]) was > 100 µM. Also, in data set [5], the CC50 was > 100 µM.
Turning to `CCCCS(=O)(=O)Nc1ccc2cnn(C(C)C)c2c1` [5a-5, N-(1-Isoproply-1H-indazol-6-yl)butane-1-sulfonamide], the MIC in data set [1] (setting [6]) was > 100 µM. Also, the MLM stability clint in data set [2] is reported as 789 μl/mi/mg protein. In addition, the half-life in data set [3] (MLM stability t1/2) was 0.878 min; in data set [3] (setting [7]) it was > 3060 min. In data set [4], the kinetic solubility is > 500 µM.
Consider `CC(C)CCCS(=O)(=O)Nc1ccc2cnn(C)c2c1` [5a-19, 4-Methyl-N-(1-methyl-1H-indazol-6-yl)pentane-1-sulfonamide], for which the MIC in data set [1] (setting [6]) was > 100 µM.
Regarding `CCCCS(=O)(=O)Nc1ccc2cnn(-c3ccccc3)c2c1` [5a-6, N-(1-Phenyl-1H-indazol-6-yl)butane-1-sulfonamide], the MIC in data set [1] (setting [6]) is > 100 µM. In data set [2], the MLM stability clint is 1,370 μl/mi/mg protein. Moreover, the half-life is 0.505 min in data set [3] (MLM stability t1/2) and > 3060 min in data set [3] (setting [7]). In data set [4], this compound showed a solubility (kinetic) of 33.7 µM (≈ 11.1 µg/mL).
In the case of `Cn1ncc2ccc(NS(=O)(=O)C3CC3)cc21` [5a-23, N-(1-Methyl-1H-indazol-6-yl)cyclopropanesulfonamide], in data set [1] (setting [6]), the MIC was > 100 µM.
In the case of `CCCCOC(=O)Nc1ccc2cnn(C)c2c1` [5d-3, Butyl (1-methyl-1H-indazol-6-yl)carbamate], the MIC in data set [1] (setting [6]) is > 100 µM. For the same compound, in data set [5], the CC50 amounted to 25 µM.
Taken in the same sequence, the figures for `Cn1ncc2ccc(NS(=O)(=O)CCc3ccccc3)cc21` [5a-22, N-(1-Methyl-1H-indazol-6-yl)-2-phenylethane-1-sulfonamide] were > 100 µM and 19.8 µM.
With `[2H]C([2H])([2H])n1ncc2ccc(NS(=O)(=O)CCCCC)cc21` [5a-31, N-(1-(Methyl-d3)-1H-indazol-6-yl)pentane-1-sulfonamide], the “improvement in MIC/whole-cell activity over DG167” value in data set [1] worked out at 2 fold. Further, the MIC in data set [1] (setting [6]) amounted to 0.2 µM (≈ 0.0569 µg/mL). Moreover, the CC50 in data set [5] was > 100 µM.
The compound `[2H]C([2H])([2H])n1ncc2ccc(NS(=O)(=O)CCCC)cc21` [5a-30, N-(1-(Methyl-d3)-1H-indazol-6-yl)butane-1-sulfonamide] registered an MLM stability clint in data set [2] of 41.3 μl/mi/mg protein. Further, in data set [5], the CC50 was found to be 180 µM. The half-life is 16.8 min in data set [3] and > 3060 min in data set [3] (setting [7]). In data set [4], the solubility (kinetic) is > 500 µM.
Regarding `CCS(=O)(=O)Nc1ccc2cnn(C)c2c1` [5a-9, N-(1-Methyl-1H-indazol-6-yl)ethanesulfonamide], in data set [1] (setting [6]), the MIC is > 100 µM.
The same measure, in the same setting: in the case of `O=[N+]([O-])c1cn2c(n1)OC[C@@H](OCc1ccc(OC(F)(F)F)cc1)C2` [PA824] it was 0.1 µM (≈ 0.0359 µg/mL).
`CCCCC(=O)Nc1ccc2cnn(C)c2c1` [5c-2, N-(1-Methyl-1H-indazol-6-yl)pentanamide]: the MIC in data set [1] (setting [6]) was > 100 µM. Also, the MLM stability clint in data set [2] is 1,040 μl/mi/mg protein. Besides, the half-life in data set [3] (MLM stability t1/2) is 0.668 min; in data set [3] (setting [7]), 13.1 min. For the same compound, the solubility (kinetic) in data set [4] was > 500 µM.
As to `CCCC(CC)S(=O)(=O)Nc1ccc2cnn(C)c2c1` (stereo not shown) [5a-17, N-(1-Methyl-1H-indazol-6-yl)hexane-3-sulfonamide], the MIC in data set [1] (setting [6]) is > 100 µM. Besides, the CC50 in data set [5] is > 100 µM.
In data set [1] (setting [6]), `CO[C@H]1/C=C/O[C@@]2(C)Oc3c(C)c(O)c4c(O)c(c(/C=N/N5CCN(C)CC5)c(O)c4c3C2=O)NC(=O)/C(C)=C\C=C\[C@H](C)[C@H](O)[C@@H](C)[C@@H](O)[C@@H](C)[C@H](OC(C)=O)[C@@H]1C` [RIF, rifampin] yielded an MIC of 0.001 µM (≈ 0.000823 µg/mL).
The same measure, in the same setting: in the case of `CCCCS(=O)(=O)N(C)c1ccc2cnn(C)c2c1` [5e, N-Methyl-N-(1-methyl-1H-indazol-6-yl)butane-1-sulfonamide] it was > 100 µM; in that of `Cn1ncc2ccc(NS(C)(=O)=O)cc21` [5a-8, N-(1-Methyl-1H-indazol-6-yl)methanesulfonamide], > 100 µM.
Still for that read-out and setting: in the case of `CCCS(=O)(=O)Nc1ccc2cnn(C)c2c1` [5a-10, N-(1-Methyl-1H-indazol-6-yl)propane-1-sulfonamide] it was 12.5 µM (≈ 3.17 µg/mL); in that of `Cn1ncc2ccc(NS(=O)(=O)Cc3ccccc3)cc21` [5a-21, N-(1-Methyl-1H-indazol-6-yl)-1-phenylmethanesulfonamide], > 100 µM.
